Measurements reported in ChEMBL document CHEMBL3507680, “University of Dundee, Gates Library screen for HepG2 cell viability”.

Assay: Human HepG2 cell viability assay in 384 well format
Assay type: toxicity, cell-based
Set-up: dose 125 nL, time 70.5 hour; cytotoxicity at 70.5 h: concentration not given beside the values
Conditions: HepG2 cells, read-out: Inhibition

Row | Compound | cytotoxicity at 70.5 h [%]
1 | O=c1[nH]cc(N2CCCCCC2)c(=O)[nH]1 | 9.28
2 | O=C(NCc1ccc(Cl)cc1)[C@@H]1Cc2[nH]cnc2CN1CC1CC1 | -6.64
3 | O=C(N[C@@H]1CNCCC[C@H]1O)c1ccc(OCCN2CCCC2)cc1 | -3.24
4 | Nc1ncncc1-c1noc([C@@H]2CCCN2Cc2cccnc2)n1 | -9.55
5 | O=C1CO[C@H]2CN(S(=O)(=O)c3ccccc3)C[C@H]2N1Cc1ccccn1 | -15
6 | O=C(NC[C@H]1OC[C@@H](NC2COC2)[C@@H]1O)Nc1ccccc1 | -1.19
7 | CC(C)NC(=O)O[C@H]1COCCN(c2nc3ccccc3s2)C1 | -5.43
8 | COCCO[C@H]1COCCN(C2CCN(C)CC2)C1 | 12.5
9 | Cn1nc(CNC(=O)CN2C(=O)CCC2=O)cc1C1CC1 | 1.45
10 | Cn1nc(CNC(=O)C2CCN(S(C)(=O)=O)CC2)cc1C1CC1 | -3.55
11 | O=C(NCc1cc(C2CC2)n(C2CCCC2)n1)C1CC1 | -9.71
12 | CCOCC(=O)NCc1cc(C2CC2)n(C2CCCC2)n1 | 0.0223
13 | COc1ccc(S(=O)(=O)C2CCN(C(=O)c3cc(C)cs3)CC2)cc1 | 1.95
14 | Cn1cnnc1S(=O)(=O)C1CCN(C(=O)c2ccco2)CC1 | 10.3
15 | O=C(CCc1ccccc1Br)N1CC(S(=O)(=O)C2CCCCC2)C1 | -5.63
16 | O=C(c1ccco1)N1CC(S(=O)(=O)c2ccc(Cl)cc2)C1 | -10.1
17 | O=C(NC1CCN(c2nccs2)CC1)c1cccs1 | 10.5
18 | Cc1cccc(CC(=O)Nc2cnn(C3CCOC3)c2)c1 (centres undefined) | -13.6
19 | COC(CNC(=O)C1CCCC1)c1ccc(C)s1 (centres undefined) | -1.8
20 | COC(CNC(=O)c1cc(C)on1)c1ccccc1C (centres undefined) | -2.28
21 | CCC(CNC(=O)OC)(OC)c1ccccc1 (centres undefined) | -0.855
22 | O=C(Nc1ccccc1)C1CCCN(c2cc(-n3cncn3)ncn2)C1 (centres undefined) | -1.76
23 | O=C(CN1CCOCC1)Nc1ccc(C(F)(F)F)cc1Cl | 14.6
24 | CCOC(=O)N1CCNC(c2cccs2)C1 (centres undefined) | 21.8
25 | NCc1cnc(Nc2ccccc2)nc1 | -17.3
26 | CNCc1cnc(Nc2ccccc2)nc1 | -5.59
27 | COCC(=O)N1CCC2(CCC(C(=O)N3CCCC3)O2)CC1 (centres undefined) | 10.4

Row | Compound | cytotoxicity at 70.5 h [%]
28 | CCN1C(=O)CCC12CCN(S(=O)(=O)c1ccc(C#N)cc1)CC2 | 15.5
29 | CCN1C[C@H]2CCN(C(=O)Nc3ccccc3C)CC[C@H]2S1(=O)=O | 15.6
30 | Cc1ccccc1NC(=O)N1CC[C@@H]2CN(CC(C)C)S(=O)(=O)[C@@H]2CC1 | -9.9
31 | CCS(=O)(=O)N1CCC2(CCCC(=O)N2C)CC1 | -11
32 | CCN1C(=O)CC[C@]12CC[C@@H](NC(=O)c1cc(C)on1)CC2 | -7.54
33 | CN1C(=O)CCC12CCN(S(=O)(=O)c1ccccc1)CC2 | -13.4
34 | CCN1C(=O)C[C@@H]2[C@@H]1CCN2S(=O)(=O)c1ccccc1 | -12.3
35 | CC(=O)N1CC2(CCN(S(=O)(=O)N(C)C)CC2)C2(CCNC2=O)C1 (centres undefined) | -1.55
36 | Cc1ccccc1NC(=O)N1CC[C@@H]2CN(C)S(=O)(=O)[C@@H]2CC1 | -8.26
37 | Cc1oncc1C(=O)N1CC2CC1(C(=O)NCc1ccco1)C2 | -10.9
38 | COc1cc(N2CCC3(CC2)CC(N2CCOCC2)CO3)ncn1 (centres undefined) | -2.9
39 | Cc1ccc(C(=O)N2C[C@H]3CNC[C@H]3C2)cn1 | 25.5
40 | NC1CCc2c(ccc(=O)n2CC2CC2)C1 (centres undefined) | 27.6
41 | O=C(CC1CC1)N1C[C@H]2CN(CC3CC3)C(=O)[C@H]2C1 | -1.89
42 | CC(C)CN1CCNC(=O)C12CCN(S(=O)(=O)c1ccc(F)cc1)CC2 | -3.61
43 | CC(C)NC(=O)C1CCC2(CCNCC2)C1 (centres undefined) | -1.82
44 | O=S(=O)(C1CC1)N1CCO[C@H]2[C@H](OCC3CC3)CC[C@@H]21 | 16.9
45 | N#Cc1cccc(C(=O)N2CCn3c(Cn4cncn4)cnc3C2)c1 | -5.58
46 | O=C(c1ccccc1)N1Cc2nccn2CC(Cn2ncccc2=O)C1 (centres undefined) | -6.78
47 | O=C(C1CC1)N1CC2(CCNCC2)C1 | -8.48
48 | O=C(N1CCOCC1)N1CCCC2(CCCNC2)C1 (centres undefined) | 8.83
49 | Cc1ccc(C(=O)N2CCc3c(CNc4ncccn4)cncc3C2)o1 | -10.9
50 | O=C(C1CCC2(CCN(CC3CC3)CC2)O1)N1CCCC1 (centres undefined) | -7.11
51 | COc1cc(N2CCC3(CC2)CC(N2CCOCC2)C3)ncn1 | -16
52 | O=C(NC1CC1)N1CCC2(CC1)C(=O)NCCN2Cc1ccccc1 | -13.6
53 | COc1ccc(C[C@H]2CN(C3CCOCC3)CC[C@H]2OCC2CC2)cc1 | 20
54 | COc1ccc(CN2C[C@@H]3CN(Cc4ccoc4)C[C@@H]3C2=O)cc1 | -6.31

Row | Compound | cytotoxicity at 70.5 h [%]
55 | O=C(C1CCC2(CCN(CC3CCOCC3)CC2)O1)N1CCCCO1 (centres undefined) | -5.73
56 | c1ccc(C[C@H]2CN(C3CCOCC3)CC[C@H]2OCC2CC2)cc1 | -8.83
57 | CN1CCC2(CCCN(c3nccc(C(F)(F)F)n3)C2)CC1 | -11.3
58 | CN(C)C[C@@H]1CCC[C@@H]2CN(c3ncccn3)C[C@@H]21 | -13
59 | CN(C)C[C@@H]1CCC[C@@H]2CN(c3cccnc3)C[C@@H]21 | -1.5
60 | COCCN(C)C[C@@H]1CCC[C@@H]2CN(c3ncccn3)C[C@@H]21 | -0.79
61 | Cc1cccc(C(=O)N2C[C@@H]3CCN(C(C)C)C[C@@H]3C2)c1 | 19
62 | Cc1ccc(CN2C(=O)CC[C@]23CC[C@@H](NCC2CCOC2)CC3)cc1 (some centres undefined) | 18.5
63 | CC(=O)N1CCC2(CN(CC3CCCC3)C2)C1 | -3.32
64 | CCN1CC(=O)NCC12CCN(C(=O)c1ccno1)C2 (centres undefined) | 2.94
65 | CCN(C)C1COC2(CCN(C(=O)c3ccc(Cl)cc3)CC2)C1 (centres undefined) | -9.04
66 | O=C1CC[C@]2(CC[C@@H](NC3CCOC3)CC2)N1Cc1ccccc1 (some centres undefined) | -1.97
67 | Cc1ccc(CN2CCc3[nH]nc(C(=O)N(C)C)c3C2)o1 | -0.827
68 | c1coc(CN2CCC3(CCOCC3COCC3CC3)CC2)c1 (centres undefined) | 2.33
69 | CC(=O)NCC(=O)N1Cc2nccn2CC(COc2cccnc2)C1 (centres undefined) | -10.5
70 | COc1cc(N2CCC3(CC2)CC(N2CCN(C)CC2)CO3)ncn1 (centres undefined) | -20.9
71 | Cc1ccc(CN2CCC3(CC2)C(=O)N(CC(C)C)CCN3C)o1 | -10.1
72 | O=C(C[C@H]1[C@H]2CN(Cc3ccncc3)C[C@@H]12)N1CCCC1 | 20.1
73 | O=C1CC[C@]2(CC[C@@H](NC3CCOC3)CC2)N1Cc1ccncc1 (some centres undefined) | -2.28
74 | Cn1cc(N2C(=O)CC[C@@H]3[C@H]2CCN3CCc2ccccc2)cn1 | 16.8
75 | CN(C)C1COC2(CCN(Cc3nccs3)CC2)C1 (centres undefined) | -4.71
76 | Cn1nccc1-c1ccc2nc(C3CCN(CC4CC4)CC3)nn2c1 | -12.2
77 | O=C1CC(c2ccncc2)C2(CCN(CC3CC3)CC2)N1 (centres undefined) | 14.8
78 | Cc1ccc(CN2CCc3[nH]nc(C(=O)N4CCN(C)CC4)c3C2)o1 | 23.5
79 | CN(Cc1cccnc1)C1COC2(CCN(Cc3nccs3)CC2)C1 (centres undefined) | -11
